Results published in patent US20260374739A1, “SMALL MOLECULAR WEIGHT CHEMICAL COMPOUND TO ANTAGONIZE EPH-EPHRIN TETRAMERIZATION AND INHIBIT BIDIRECTIONAL SIGNALING” (THE BOARD OF REGENTS OF THE UNIVERSITY OF TEXAS SYSTEM, priority 2022, published 2026).

How the values were obtained:
[1] = test system: normal human dermal fibroblast (NHDF) cells; assay: MTT cytotoxicity; format: cell-based; settings: up to 10 μM, 48 hr
Protocol: Potential cytotoxicity of A20 was evaluated using MTT assay performed after culturing normal human dermal fibroblast (NHDF) cells with increasing concentrations of A20 for 48 hr.

[2] = multi-day IP dosing tolerability; format: in vivo, mouse; settings: multi-day dosing every 12 hr, up to 40 mg/kg
EphrinB3-EphB1 = EphrinB3-EphB1 (Homo sapiens, UniProt P54762); assay: Octet, immobilized human EphrinB3 binding to human EphB1
Sequence of EphrinB3-EphB1 (P54762 18-540 limits assumed): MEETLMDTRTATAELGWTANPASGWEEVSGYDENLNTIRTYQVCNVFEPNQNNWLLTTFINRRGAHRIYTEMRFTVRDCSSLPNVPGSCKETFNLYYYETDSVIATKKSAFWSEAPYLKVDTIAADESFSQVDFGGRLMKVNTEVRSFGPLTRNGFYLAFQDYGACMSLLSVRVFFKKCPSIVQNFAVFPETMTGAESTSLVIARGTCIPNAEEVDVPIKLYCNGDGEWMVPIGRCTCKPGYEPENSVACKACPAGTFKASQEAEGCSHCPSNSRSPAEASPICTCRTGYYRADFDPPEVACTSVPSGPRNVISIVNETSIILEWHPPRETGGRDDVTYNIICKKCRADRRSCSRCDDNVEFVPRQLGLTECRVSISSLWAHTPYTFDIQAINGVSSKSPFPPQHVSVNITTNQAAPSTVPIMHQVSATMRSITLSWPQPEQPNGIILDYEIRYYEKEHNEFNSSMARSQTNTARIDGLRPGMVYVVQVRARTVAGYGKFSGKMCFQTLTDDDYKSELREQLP
Protocol: Studies were conducted to confirm that A20 chemicals can effectively target the human Eph/Ephrin proteins. Octet system was used to first characterize the biophysical interactions of the human B class Eph and Ephrin proteins, and then was tested to assess how A20 may disrupt the interactions. Since the human and rodent proteins are highly conserved, and essentially identical, with EphB2 sharing 99.5% identity between human and mouse, with only 5 of ~1,000 amino acids different, any species-specific differences were not anticipated. Therefore, commercially available human EphrinB1-Fc (EB1), EphrinB2-Fc (EB2), and EphrinB3-Fc (EB3) ectodomain proteins were sparsely immobilized onto biosensors and then exposed to 50 nM of soluble human EphB1-His, EphB2-His, and EphB4-His ectodomains for 800 sec association and 1,000 sec dissociation steps with a total of nine different interactions analyzed. In the absence of A20 chemical, the immobilized human EphrinB proteins bound to their appropriate human EphB target proteins; with EphrinB1 only bound EphB1 and EphB2, EphrinB2 bound all three EphB1, EphB2, and EphB4, and EphrinB3 only bound EphB1 and EphB2 (FIG. 19A-19B).
Addition of compound also altered dissociation kinetics. […] This is referred to as the “unsurmountable” component of the Eph-Ephrin interaction (FIG. 21C). Additionally, AUC data was graphed for these runs (FIG. 21D). […]

[3] = molecular target: pre-formed EphB2-EphrinB2 tetramer (Mus musculus, UniProt P54763); assay: Octet competition of pre-existing tetramers, mouse EphB2-EphrinB2; format: binding; settings: 2, 10, 50 μM
Sequence of pre-formed EphB2-EphrinB2 tetramer (P54763 19-543 limits assumed): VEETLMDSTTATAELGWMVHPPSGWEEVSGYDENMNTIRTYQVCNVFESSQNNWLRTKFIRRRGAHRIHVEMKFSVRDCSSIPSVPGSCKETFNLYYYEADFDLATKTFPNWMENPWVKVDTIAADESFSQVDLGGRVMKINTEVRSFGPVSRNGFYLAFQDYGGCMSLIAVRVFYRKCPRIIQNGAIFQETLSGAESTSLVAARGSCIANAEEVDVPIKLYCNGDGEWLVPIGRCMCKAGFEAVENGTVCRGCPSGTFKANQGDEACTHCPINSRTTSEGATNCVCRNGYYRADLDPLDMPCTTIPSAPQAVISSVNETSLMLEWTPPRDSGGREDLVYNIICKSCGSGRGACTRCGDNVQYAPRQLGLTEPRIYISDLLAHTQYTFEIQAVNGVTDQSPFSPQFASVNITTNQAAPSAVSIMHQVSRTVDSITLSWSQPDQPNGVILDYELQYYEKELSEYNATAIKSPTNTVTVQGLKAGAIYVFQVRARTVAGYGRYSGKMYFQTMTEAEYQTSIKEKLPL
Protocol: Biophysical studies were conducted to explore if A20 is able to disrupt pre-existing stable tetramers, focusing on interactions of immobilized human EphrinB2 binding to soluble human EphB1 and EphB2, and immobilized mouse EphB2 binding to mouse EphrinB2 (FIGS. 29A-29C). In these experiments, sensor-chip immobilized proteins were first exposed to 50 nM of their soluble target protein for an 800 sec association step and 1,000 sec dissociation step to generate pre-formed stable tetramers, which were then subjected to a 1,000 sec competition step that included either 0, 2, 10, or 50 μM concentrations of A20 salt compound. […] The ability of A20 to disrupt pre-existing tetramers was most pronounced for human EB2-EphB2 and cognate murine EphB2-EB2 experiments and indicated a gradual ongoing dose-dependent decline in tetramers throughout the 1,000 sec competition step (and beyond if allowed) and irrespective of whether the human EphrinB2 or murine EphB2 was the immobilized protein.

[4] = test system: CFA-induced mechanical pain in mice; assay: CFA inflammatory pain, mechanical; format: in vivo, mouse; settings: IP or PO 20 mg/kg
Protocol: The week prior to injection of CFA, adult mice (>10 weeks age, male or female) were first acclimated to the chambers used in pain assessments and then their left and right hind paws were subjected to thermal (heat) and mechanical (touch) pain measurements to obtain baseline data. Mechanical pain was assessed by placing mice on a wire grid and repeatably testing hind paws for their sensitivity to von Frey (VF) filaments of different stiffnesses with the mechanical withdrawal threshold for each mouse hind paw defined as the minimum gauge filament needed to elicit a reflex. Thermal pain was assessed by placing mice on a glass surface and subjecting their hind paws to an infrared heat source (Hargreaves device) that is connected to a timer to measure how long the animal takes to notice the heat and lift the paw. In these tests, both hind paws of mice were subjected to multiple measurements over a 2-3 hr period to (1) either narrow down the VF filament stiffness threshold to plot the touch pain or (2) to obtain six good thermal response measurements which are averaged to provide the data points for heat pain. […] A total of 12 mice were assessed in any one experiment. […]

Oc1c(Br)cc(CN2CCOCC2)c2cccnc12 [Compound 5, 7-bromo-5-(morpholinomethyl)quinolin-8-ol]
cytotoxicity [1]: not toxic
tolerability [2]: well tolerated
reduction of tetramer formation (EphrinB3-EphB1; EB3-EphB1, A20): 40%
IC (maximum) (EphrinB3-EphB1; read-out: concentration producing maximum inhibition): 10 µM
competition of pre-formed tetramers [3]: able to compete away in a dose-dependent manner a significant amount of the stable pre-formed tetramer complexes
mechanical pain [4]: no increased sensitivity to the VF filaments on average
mechanical pain ratio ([4]; vehicle 2-3): 1
